Values joined by “and” are separate entries in the source; they are usually repeats but may differ in a detail not shown here. Identical values can stand only once.

The nature of data set [1]: Octanol–water partition coefficient (shake-flask, UV–vis). Type of data set: physicochemical. Conditions: T = 21 °C. The protocol:
The solubility of the complexes in D2O was assessed using ^1H NMR spectroscopy (see Table 1 and the Experimental Section for details). […] Data from the literature for the related nonfunctionalized complexes [2′,3′]CF3SO3 are compiled in Table 1 for comparison.[11] The octanol–water partition coefficients (Log Pow) were measured using a UV–vis method and fall within the −0.2 to +1.2 range (Table 1). […] For instance, Log Pow values of 1.07 and 0.65 are obtained for the geometric isomers [9]CF3SO3 and [10]CF3SO3, respectively. […]
Determination of partition coefficients (Log P ow)
Partition coefficients ( Pow; IUPAC: K D partition constant, 7,8 defined as Pow = corg/caq, where corg and caq are the molar concentrations of the selected compound in the organic and aqueous phases, respectively, were determined by the shake-flask method and UV-Vis measurements. 9 Values of Log Pow for diiron complexes are compiled in Table 2. All the operations were carried out at 21±1 °C. De -ionised water and 1-octanol were mixed and vigorously stirred for 24 hours at room temperature to allow saturation of both phases, then separated by centrifugation and used for the following experiments. A solution of the selected Fe compound in the organic phase (V = 5 mL) was prepared and its UV-Vis spectrum was recorded. An aliquot of the solution (Vorg = 1.5 mL) was then transferred into a test tube and the aqueous phase (Vorg = Vaq = 1.5 mL) was added. The mixture was vigorously stirred for 20 minutes and the resulting emulsion was centrifuged (5000 rpm, 10’). […]
the organic phase was recorded. The procedure was repeated three times for each compound. The partition coefficient was then calculated as PPow = AorgA0,org − Aorg, where A0,org and Aorg are the absorbance values in the organic phase, respectively before and after mixing with the aqueous phase. 9 UV-Vis measurements were carried out using 1 cm PMMA cuvettes. The wavelength of the maximum absorption of each compound was used for UV-Vis quantification.

The target in data set [2] is T1, bovine serum albumin (BSA) (Bos taurus, UniProt P02769).
T1 construct: bovine serum albumin (BSA, lyophilized powder, crystallized, ≥98.0%); purchased Merck
Briefly: BSA fluorescence quenching titration. To be noted: pH 7.0 buffer, NaCl 0.1 M, NaCac 0.01 M; for Log K (binding constant, compound/BSA): 1:1 model, 25 °C. In kind it is binding. The text has this: The interaction of [4]CF3SO3 and [9]CF3SO3 with bovine serum albumin (BSA) as a model protein was also explored. The addition of the metal complex to the protein in pH buffer solution (pH 7.0 buffer; NaCl 0.1 M, NaCac 0.01 M) produced a quenching of the intrinsic fluorescence emission of the latter. A data fit, according to the Stern–Volmer equation,[11] provided quenching constants (KSV) values equal to ca. 3.4 × 10^4 for both systems, indicative that a binding event occurs (Figure S1).[32] […] More precisely, the binding constant (10^6) appears to be high enough to ensure adduct formation but also weak enough to release the complex once the biotarget is reached; this is assumed to be the optimal condition for BSA-driven transport and diffusion of a drug.[34]
Ethidium bromide (EB, ≥98.0%), bovine serum albumin (BSA, lyophilized powder, crystallized, ≥98.0%), and natural double-stranded DNA from calf thymus (DNA, lyophilized powder, Na^+ salt in the form of fibers) were purchased from Merck, while anhydrous guanosine 5′-monophosphate disodium salt (Na2[GMP], >98.0%) was purchased from TCI Chemicals. Prior to use, DNA was sonicated to ca. 500 base pair length (MSE-Sonyprep sonicator, 7 cycles of 10 s sonication + 20 s pause at an amplitude of 14 μm, solution kept in ice bath—the final length was checked by agarose gel electrophoresis tests on the sample using a 100 bp DNA ladder) to produce stock solutions in water (ca. 2 mM). Stock solutions of EB and BSA were prepared by weighing directly in the buffer (NaCl 0.1 M, NaCac 0.01M, pH 7.0—NaCac is sodium cacodylate). […] Molar concentrations of solutions of EB (CEB), BSA (CBSA), and DNA (CDNA) were determined by absorbance measurements (εEB^480 nm = 5700 M^–1 cm^–1; εBSA^278 nm = 44000 M^–1 cm^–1; εDNA^260 nm = 13200 M^–1 cm^–1 for a concentration expressed in base pairs). […] In EB/DNA exchange experiments, EB was added to DNA until the fluorescence emission at λex = 520 nm/λem = 595 nm (diagnostic wavelengths for the DNA-intercalated EB only) started to reach the plateau (CEB = 5.60 × 10^–5 M, CDNA = 1.15 × 10^–4 M). […] The total maximum amount of DMSO was checked (<3%) as well as the metal complex absorbance at the set wavelengths (A < 0.05 to ensure negligible inner filter effects). Note that a blank test was carried out by adding DMSO to the EB/DNA mixture, in order to quantify fluorescence changes due only to dilution/solvent effects. For BSA fluorescence titrations, the working solution of the metal complex (4.42 × 10^–5 M for [4]CF3SO3, 4.59 × 10^–5 M for [9]CF3SO3, both in the buffer) was added to a 3.34 × 10^–7 M BSA solution in the buffer (λex = 280 nm, λem = 345 nm, dilution from stock such that the DMSO content is negligible). […]

T1 sequence (P02769 25-607): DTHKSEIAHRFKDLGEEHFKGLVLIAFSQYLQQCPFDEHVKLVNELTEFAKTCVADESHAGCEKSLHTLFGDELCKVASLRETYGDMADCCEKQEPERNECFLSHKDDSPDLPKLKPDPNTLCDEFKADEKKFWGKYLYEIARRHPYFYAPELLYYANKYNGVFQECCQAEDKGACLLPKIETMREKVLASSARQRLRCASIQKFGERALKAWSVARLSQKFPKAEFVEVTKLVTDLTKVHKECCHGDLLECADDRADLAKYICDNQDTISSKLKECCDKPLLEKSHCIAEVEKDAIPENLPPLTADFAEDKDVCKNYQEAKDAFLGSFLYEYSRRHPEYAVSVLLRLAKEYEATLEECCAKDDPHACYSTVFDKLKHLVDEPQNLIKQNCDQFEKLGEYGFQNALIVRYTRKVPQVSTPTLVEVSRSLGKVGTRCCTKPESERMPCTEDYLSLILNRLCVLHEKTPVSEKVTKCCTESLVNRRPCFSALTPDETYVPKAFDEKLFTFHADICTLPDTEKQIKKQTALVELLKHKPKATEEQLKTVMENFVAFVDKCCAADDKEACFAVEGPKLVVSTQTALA

Turning to “[Fe2Cp2(CO)(μ-CO){μ-η^1:η^3-Cγ(3-C6H4OC(=O)C6H4OC(=O)Me)CβHCαNMe(Xyl)}]CF3SO3 [[4]CF3SO3]”, in data set [1], the “Log Pow” value turned out to be 1.06 ± 0.04. Also, in data set [2], the “Log K (binding constant, compound/BSA)” value came out at 5.9 ± 0.1 and the “Stern–Volmer quenching constant (KSV)” value is “ca. 3.4 × 10^4”.
With “[Fe2Cp2(CO)(μ-CO){μ-η^1:η^3-Cγ(3-C6H4NHC(=O)(CH2)3C6H4N(CH2CH2Cl)2)CβHCαNMe2}]CF3SO3 [[9]CF3SO3]”, in data set [1], the “Log Pow” value was 1.07 and 1.07 ± 0.05. In data set [2], the “Log K (binding constant, compound/BSA)” value worked out at 6.5 ± 0.1 and the “Stern–Volmer quenching constant (KSV)” value is recorded as “ca. 3.4 × 10^4”.

(Values after paper PMC8397425, “A Strategy to Conjugate Bioactive Fragments to Cytotoxic Diiron Bis(cyclopentadienyl) Complexes” (Organometallics, 2021).)
